Values joined by “and” are separate entries in the source; they are usually repeats but may differ in a detail not shown here. Identical values can stand only once.
Conditions: Fluid (supercritical or subcritical phases); for mass density: Buoyancy - hydrostatic balance with magnetic suspension - one sinker; for viscosity: Vibrating wire viscometry

CCCC [butane]
Conditions	mass density	viscosity
298.11 K, 162.81 kPa	4.0157 kg/m3	0.007353 mPa·s
298.11 K, 162.82 kPa	4.016 kg/m3	0.007354 mPa·s
298.12 K, 142.16 kPa	3.4823 kg/m3	0.007359 mPa·s
298.12 K, 221.35 kPa	5.5716 kg/m3	0.007333 mPa·s
298.12 K, 221.39 kPa	5.5728 kg/m3	0.007334 mPa·s
298.13 K, 123.43 kPa	3.0049 kg/m3	0.007365 mPa·s
298.13 K, 123.44 kPa	3.0052 kg/m3	0.007363 mPa·s
298.13 K, 142.17 kPa	3.4826 kg/m3	0.007359 mPa·s
298.14 K, 61.79 kPa	1.4756 kg/m3	0.007376 mPa·s
298.14 K, 61.8 kPa	1.4758 kg/m3	0.007378 mPa·s
298.14 K, 82.37 kPa	1.9794 kg/m3	0.007375 mPa·s
298.14 K, 82.38 kPa	1.9797 kg/m3	0.007372 mPa·s
298.14 K, 102.9 kPa	2.4887 kg/m3	0.007369 mPa·s
298.14 K, 102.91 kPa	2.4889 kg/m3	0.00737 mPa·s
298.14 K, 175.29 kPa	4.3414 kg/m3 and 4.3415 kg/m3	0.007347 mPa·s and 0.007346 mPa·s
298.14 K, 196.75 kPa	4.9091 kg/m3	0.007342 mPa·s
298.14 K, 196.77 kPa	4.9096 kg/m3	0.007341 mPa·s
298.15 K, 57.18 kPa	1.3635 kg/m3 and 1.3636 kg/m3	0.007377 mPa·s and 0.007378 mPa·s
322.98 K, 450.39 kPa	11.024 kg/m3	0.007953 mPa·s
323 K, 450.69 kPa	11.032 kg/m3	0.007951 mPa·s
323.01 K, 450.89 kPa	11.037 kg/m3	0.007953 mPa·s
323.06 K, 392.1 kPa	9.426 kg/m3	0.007958 mPa·s
323.08 K, 392.5 kPa	9.4391 kg/m3	0.007954 mPa·s
323.09 K, 392.9 kPa	9.4492 kg/m3	0.00796 mPa·s
323.11 K, 380.74 kPa	9.1236 kg/m3	0.007958 mPa·s
323.11 K, 380.78 kPa	9.1236 kg/m3	0.007958 mPa·s
323.12 K, 330.12 kPa	7.8092 kg/m3	0.007967 mPa·s
323.12 K, 330.36 kPa	7.8164 kg/m3	0.007967 mPa·s
323.12 K, 380.76 kPa	9.1272 kg/m3	0.007958 mPa·s
323.13 K, 261.18 kPa	6.0223 kg/m3	0.00797 mPa·s
323.13 K, 261.21 kPa	6.023 kg/m3	0.007973 mPa·s
323.13 K, 301.54 kPa	7.0807 kg/m3	0.00797 mPa·s
323.13 K, 303.39 kPa	7.1241 kg/m3	0.007967 mPa·s
323.13 K, 305.32 kPa	7.1762 kg/m3	0.00797 mPa·s
323.13 K, 330.63 kPa	7.8215 kg/m3	0.007965 mPa·s
323.14 K, 58.2 kPa	1.2744 kg/m3 and 1.2766 kg/m3	0.007994 mPa·s and 0.007988 mPa·s
323.14 K, 58.21 kPa	1.2766 kg/m3	0.00799 mPa·s
323.14 K, 66.38 kPa	1.4575 kg/m3 and 1.4567 kg/m3	0.007991 mPa·s and 0.007994 mPa·s
323.14 K, 66.39 kPa	1.4553 kg/m3	0.007994 mPa·s
323.14 K, 90.51 kPa	1.9979 kg/m3	0.007987 mPa·s
323.14 K, 90.52 kPa	1.9986 kg/m3	0.00799 mPa·s
323.14 K, 112.93 kPa	2.5057 kg/m3	0.00799 mPa·s
323.14 K, 112.94 kPa	2.5035 kg/m3	0.007991 mPa·s
323.14 K, 112.96 kPa	2.5057 kg/m3	0.00799 mPa·s
323.14 K, 132.43 kPa	2.9506 kg/m3	0.007991 mPa·s
323.14 K, 132.44 kPa	2.9492 kg/m3	0.007989 mPa·s
323.14 K, 132.46 kPa	2.9499 kg/m3	0.007989 mPa·s
323.14 K, 184.24 kPa	4.1645 kg/m3	0.007979 mPa·s
323.14 K, 215.63 kPa	4.9096 kg/m3	0.007976 mPa·s
323.14 K, 215.65 kPa	4.9111 kg/m3	0.007976 mPa·s
323.14 K, 215.87 kPa	4.9169 kg/m3	0.007974 mPa·s
323.14 K, 261.28 kPa	6.0252 kg/m3	0.007968 mPa·s
323.15 K, 150.03 kPa	3.3622 kg/m3	0.007982 mPa·s
323.15 K, 150.04 kPa	3.3622 kg/m3	0.007982 mPa·s
323.15 K, 184.35 kPa	4.1652 kg/m3	0.00798 mPa·s
323.15 K, 184.36 kPa	4.1667 kg/m3	0.007979 mPa·s
348.03 K, 813.85 kPa	19.576 kg/m3	0.008652 mPa·s
348.03 K, 813.99 kPa	19.581 kg/m3	0.008648 mPa·s
348.03 K, 814.13 kPa	19.586 kg/m3	0.008649 mPa·s
348.12 K, 677.52 kPa	15.682 kg/m3	0.008631 mPa·s
348.12 K, 677.82 kPa	15.691 kg/m3	0.008631 mPa·s
348.13 K, 760.25 kPa	17.999 kg/m3	0.00864 mPa·s
348.13 K, 760.34 kPa	18.002 kg/m3	0.008637 mPa·s
348.14 K, 93.82 kPa	1.9124 kg/m3	0.008599 mPa·s
348.14 K, 93.83 kPa	1.9131 kg/m3	0.008597 mPa·s
348.14 K, 293.19 kPa	6.2173 kg/m3	0.008602 mPa·s
348.14 K, 293.73 kPa	6.2296 kg/m3	0.008602 mPa·s
348.14 K, 618.24 kPa	14.097 kg/m3	0.008621 mPa·s
348.14 K, 618.34 kPa	14.099 kg/m3	0.008628 mPa·s
348.15 K, 63.28 kPa	1.2845 kg/m3	0.008588 mPa·s
348.15 K, 63.3 kPa	1.286 kg/m3	–

Source: the NIST ThermoML archive (doi:10.1021/acs.jced.5b00654)
